We go through two compounds from patent US7838552B2, “Compositions comprising nebivolol” (Forest Laboratories Holdings Limited, priority 2004, dated 2010).

This assay has as its system Black donor endothelial cells (HUVEC). In words: NO release from HUVEC of Black donors, measured with a porphyrinic nanosensor. Type of assay: cell-based, Human. Conditions: for magnitude of the increase in NO release, Black versus White donor cells: chronic ACE inhibitor treatment followed by nebivolol 1 μM, FIG. 2 and FIG. 4. On the procedure: All measurements presented were recorded in vitro using a sensitive porphyrinic probe, as previously described. Malinski T, Taha Z., Nature. 1992; 358:676-678; Malinski T, Czuchajowski L., Methods in Nitric Oxide Research. 1996:319-339. NO release was measured directly from HUVEC. HUVEC cells from Black and White donors were grown in Ham's F12K medium with 2 mM L-glutamine adjusted to contain 1.5 g/L sodium bicarbonate and supplemented with 0.1 mg/ml heparin and 0.03-0.05 mg/ml endothelial cell growth supplement (ECGS) +10% fetal bovine serum. The HUVEC cells were kept in an atmosphere of elevated CO2 concentration (5%). Nebivolol was obtained from Mylan Laboratories (Morgantown, W.Va.).
All measurements of endothelial NO release were conducted in Hank's balance solution at 37° C. Cell wells were transferred to a Faraday cage and a porphyrinic sensor (diameter 0.5 mm) was positioned at a distance of 5±2 μm from the surface of the endothelial cells using an inverted microscope (Leica Microsystems, Wetzlar, Germany) and a computer-assisted micromanipulator. The sensor operated with a three-electrode system: nanosensor (working electrode), saturated calomel electrode (reference electrode) and platinum wire (counter electrode, 0.5 mm diameter). The three electrodes were connected to a potentiostat/galvanostat PAR273. The baseline was stabilized after about 20 seconds. The test compounds were injected with a nanoinjector onto the surface of the cells following solubilization in buffer. Cells were incubated with the test compounds for a 24-hour period. The compounds were then washed out of the system before being immediately reintroduced in order to evaluate the consequences of chronic treatment on NO release from the cells. For additive experiments, cells were incubated with ACE inhibitor for 24 hours, the inhibitor was washed out of the system, nebivolol was added and the NO release measured. The current proportional to the NO concentration was measured with the sensor, which operated in amperometric mode at a constant potential of 0.63V. Data were acquired with the use of an IBM computer with custom software and amperograms (current vs. time curves) were recorded with a Guniry FAS1 Femtostat (Warminster, Pa.). Maximum release of NO was produced using a calcium agonist (1 μM). By increasing cytoplasmic levels of calcium, the ion can bind to calmodulin. The Ca2+-calmodulin complex is a cofactor for endothelial NO synthase, along with FAD, FMN, Heme and BH4.
Nanosensors were prepared from carbon fibers. The size of the tip of carbon fiber was reduced from 6 μm to less than 1 μm by temperature controlled burning. The sensors were sensitized to NO by deposition of electrically conductive polymeric porphyrin and covered with a thin layer of Nafion. […]

Molecules are shown by their SMILES.

For `C[C@H](N[C@@H](CCc1ccccc1)C(=O)O)C(=O)N1[C@H](C(=O)O)C[C@@H]2CCC[C@@H]21` [ramiprilat], the “magnitude of the increase in NO release, Black versus White donor cells” value was “greater in endothelial cells from Black donors”. For the setting “Black donor cells, chronic (24 h) ramiprilat 1, 5 and 10 μM, washed out, then nebivolol 1 μM, FIG. 1”, the “effect on the ability of nebivolol to increase NO release” value is on record as “modest but significant effects”.

Take `CCOC(=O)[C@H](CCc1ccccc1)N[C@@H](C)C(=O)N1CCC[C@H]1C(=O)O` [enalapril]: the “magnitude of the increase in NO release, Black versus White donor cells” value is “greater in endothelial cells from Blacks than Whites”. For the same compound, the “enhancement of the ability of nebivolol to increase NO release” value (Black donor cells, chronic (24 h) enalapril 5 and 10 μM, then nebivolol 1 μM, FIG. 3) is given as “significantly enhanced”.
